Consider 20 compounds from ChEMBL document CHEMBL1201862, “PubChem BioAssay data set” (2004).

Activity calls are given as the source filed them.

The target of assay [1] is T1, Replicative DNA helicase DnaB (Mycobacterium tuberculosis, UniProt P9WMR3).
T1 sequence (P9WMR3 whole entry): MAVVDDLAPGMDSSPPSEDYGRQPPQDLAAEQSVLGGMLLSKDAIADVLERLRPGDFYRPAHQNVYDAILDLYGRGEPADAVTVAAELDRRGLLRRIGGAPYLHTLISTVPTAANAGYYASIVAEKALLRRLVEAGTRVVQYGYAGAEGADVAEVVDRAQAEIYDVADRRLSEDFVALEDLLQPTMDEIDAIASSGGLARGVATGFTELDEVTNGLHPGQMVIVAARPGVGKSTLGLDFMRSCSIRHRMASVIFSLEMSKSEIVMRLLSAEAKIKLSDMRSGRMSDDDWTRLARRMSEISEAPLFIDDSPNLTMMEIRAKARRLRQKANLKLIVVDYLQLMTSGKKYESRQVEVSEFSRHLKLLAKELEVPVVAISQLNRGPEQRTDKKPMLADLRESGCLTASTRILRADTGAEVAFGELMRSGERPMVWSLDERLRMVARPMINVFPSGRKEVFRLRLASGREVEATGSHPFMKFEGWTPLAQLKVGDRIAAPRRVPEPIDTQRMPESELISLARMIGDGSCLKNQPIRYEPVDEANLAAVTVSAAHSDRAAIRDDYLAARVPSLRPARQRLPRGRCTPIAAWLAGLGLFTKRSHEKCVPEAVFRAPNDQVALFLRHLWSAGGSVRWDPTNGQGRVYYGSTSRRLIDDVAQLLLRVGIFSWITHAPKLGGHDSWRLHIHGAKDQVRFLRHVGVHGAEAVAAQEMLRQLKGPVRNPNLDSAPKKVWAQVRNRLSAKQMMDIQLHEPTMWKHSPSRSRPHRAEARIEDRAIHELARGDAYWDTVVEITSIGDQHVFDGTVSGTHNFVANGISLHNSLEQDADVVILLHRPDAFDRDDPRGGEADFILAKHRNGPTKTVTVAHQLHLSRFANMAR
The experiment in a line: DnaB intein splicing inhibitors, dose response, biochemical, cell-free fluorescence (AID 449749). Format: functional.

The target in another assay is T2, Protein RecA (Mycobacterium tuberculosis, UniProt P9WHJ3).
T2 sequence (P9WHJ3 whole entry): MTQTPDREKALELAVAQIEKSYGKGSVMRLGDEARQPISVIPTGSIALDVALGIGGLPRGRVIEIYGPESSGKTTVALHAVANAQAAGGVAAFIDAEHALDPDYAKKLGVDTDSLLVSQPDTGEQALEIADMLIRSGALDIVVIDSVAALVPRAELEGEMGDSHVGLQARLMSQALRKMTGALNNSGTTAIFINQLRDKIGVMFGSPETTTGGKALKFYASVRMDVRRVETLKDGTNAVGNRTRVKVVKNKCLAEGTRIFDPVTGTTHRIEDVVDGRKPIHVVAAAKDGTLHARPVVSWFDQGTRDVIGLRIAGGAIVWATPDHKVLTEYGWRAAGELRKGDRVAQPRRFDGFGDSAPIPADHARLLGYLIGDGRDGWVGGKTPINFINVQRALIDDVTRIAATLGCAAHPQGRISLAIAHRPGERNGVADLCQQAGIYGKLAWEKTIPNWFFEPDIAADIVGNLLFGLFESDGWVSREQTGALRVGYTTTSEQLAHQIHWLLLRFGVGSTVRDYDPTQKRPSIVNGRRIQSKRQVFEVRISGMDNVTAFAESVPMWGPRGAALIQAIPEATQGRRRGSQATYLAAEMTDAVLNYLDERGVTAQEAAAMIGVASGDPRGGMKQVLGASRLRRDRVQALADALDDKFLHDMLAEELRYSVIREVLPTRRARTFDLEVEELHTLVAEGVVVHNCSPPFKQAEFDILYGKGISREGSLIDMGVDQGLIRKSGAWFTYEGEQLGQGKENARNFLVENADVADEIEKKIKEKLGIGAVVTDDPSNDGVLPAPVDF
Briefly: Fluorescence Cell-Free Homogeneous Dose Retest to Identify Inhibitors of RecA-Intein Splicing Activity. [Related pubchem assays (depositor defined):AID2097, AID2223, AID489010, AID492950]. Format: functional.

Another assay deals with H9c2. Briefly: cells. Particulars: Rattus norvegicus, H9c2, Myocardium. It counts as functional, cell-based.
Assay [2] is described as follows: HEp-2 cell cytotoxicity, dose response, cytotoxicity control for RSV inhibitor project, HTS (AID 2410). Format: functional. The following applies: human respiratory syncytial virus.
Assay [3] can be described thus: Luminescence Cell-Based Dose Retest to Confirm Inhibitors of Cancer Stem Cells. [Related pubchem assays (depositor defined):AID2717, AID2721]. It counts as functional. The following applies: Homo sapiens.
A short description of assay [4]: cytotoxicity toward NIH3T3 fibroblasts, dose response, counter-screen, cell-based, ATP luminescence, mouse fibroblasts (AID 2010).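 Further: cells exposed to compound for about 90 hours before reading.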 Format: functional. A general note: A counterscreen serves to expose hits that act by an unwanted route or on another target.
The target in assay [5] is T3, Ubiquitin-conjugating enzyme E2 N (Homo sapiens, UniProt P61088).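 Further: Dose-response confirmation in a TR-FRET assay detecting UBC13-driven polyubiquitin chain formation, inhibition measured.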
T3 sequence (P61088 whole entry): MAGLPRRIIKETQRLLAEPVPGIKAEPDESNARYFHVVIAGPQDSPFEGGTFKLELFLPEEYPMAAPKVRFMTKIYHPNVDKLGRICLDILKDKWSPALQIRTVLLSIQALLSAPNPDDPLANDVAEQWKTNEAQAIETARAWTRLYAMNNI
It counts as functional.

The target in assay [6] is T4, Calpain-2 catalytic subunit (Sus scrofa, UniProt P43367).
T4 sequence (P43367 whole entry): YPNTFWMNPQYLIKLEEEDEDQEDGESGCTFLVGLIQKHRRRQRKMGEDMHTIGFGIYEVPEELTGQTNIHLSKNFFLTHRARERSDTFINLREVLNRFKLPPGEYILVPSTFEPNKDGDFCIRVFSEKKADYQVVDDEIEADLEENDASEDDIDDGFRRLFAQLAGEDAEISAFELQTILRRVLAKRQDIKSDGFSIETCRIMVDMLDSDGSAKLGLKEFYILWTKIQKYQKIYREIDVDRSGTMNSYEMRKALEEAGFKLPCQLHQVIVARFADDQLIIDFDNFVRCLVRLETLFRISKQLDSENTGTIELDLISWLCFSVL
The experiment in a line: pig calpain II inhibitor potency, dose response, biochemical, fluorogenic peptide substrate (AID 1420). It counts as functional.

The nature of assay [7]: inhibitors of intracellular T. cruzi replication, confirmation, NIH3T3 host cells, beta-gal luminescence (AID 2044).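 Further: intracellular parasites grown in NIH/3T3 mouse fibroblasts as host cells; luminescent beta-galactosidase reporter signal from transgenic T. cruzi replicating inside host cells; inhibitors lower the luminescence signal.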 Format: functional, cell-based.
Assay [8] deals with T5, Endoribonuclease toxin MazF (Escherichia coli K-12, UniProt P0AE70).
T5 sequence (P0AE70 whole entry): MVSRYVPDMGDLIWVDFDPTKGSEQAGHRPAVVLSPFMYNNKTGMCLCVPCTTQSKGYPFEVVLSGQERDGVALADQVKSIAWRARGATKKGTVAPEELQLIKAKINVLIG
The experiment in a line: fluorescent RNA oligo signal without MazF, dose response, counter-screen for MazEF activator project, biochemical, fluorescence, single-stranded RNase substrate (AID 588502). Format: functional.

The target of assay [9] is T5, Endoribonuclease toxin MazF. Briefly: MazF toxin RNase activators, dose response, biochemical, fluorescence, single-stranded RNA substrate, uHTS hits (AID 588481). It counts as functional.
The target in assay [10] is Induced myeloid leukemia cell differentiation protein Mcl-1 (Homo sapiens, UniProt Q07820). It counts as functional.
In assay [11] the target is T6, Corticotropin-releasing factor receptor 2/Corticotropin-releasing factor-binding protein (Homo sapiens, UniProt P24387+Q13324).
T6 sequence (Q13324 whole entry): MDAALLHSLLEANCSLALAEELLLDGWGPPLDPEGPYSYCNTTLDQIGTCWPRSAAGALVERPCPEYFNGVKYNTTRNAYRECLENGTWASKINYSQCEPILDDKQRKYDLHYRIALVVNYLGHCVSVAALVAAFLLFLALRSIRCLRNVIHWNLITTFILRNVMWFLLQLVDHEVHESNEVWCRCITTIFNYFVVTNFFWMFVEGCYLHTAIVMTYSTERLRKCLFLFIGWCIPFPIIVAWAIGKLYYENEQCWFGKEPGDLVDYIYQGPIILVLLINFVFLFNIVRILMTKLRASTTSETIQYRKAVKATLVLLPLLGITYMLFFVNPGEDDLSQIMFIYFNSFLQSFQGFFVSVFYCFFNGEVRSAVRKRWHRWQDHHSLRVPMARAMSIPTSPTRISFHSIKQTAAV
T6 sequence (P24387 whole entry): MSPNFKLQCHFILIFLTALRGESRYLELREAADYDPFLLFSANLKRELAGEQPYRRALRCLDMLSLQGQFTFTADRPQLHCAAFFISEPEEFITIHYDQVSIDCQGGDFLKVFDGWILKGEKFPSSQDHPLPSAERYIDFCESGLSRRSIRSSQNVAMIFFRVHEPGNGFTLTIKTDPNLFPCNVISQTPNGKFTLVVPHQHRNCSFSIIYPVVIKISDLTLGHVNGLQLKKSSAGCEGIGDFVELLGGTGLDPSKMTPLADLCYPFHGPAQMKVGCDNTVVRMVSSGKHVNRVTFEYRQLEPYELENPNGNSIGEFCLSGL
The experiment in a line: activators of CRF receptor 2 with binding protein – uHTS hits, confirmation (AID 602473). Format: functional. Particulars: read-out: EC50_Mean.

Chain of Induced myeloid leukemia cell differentiation protein Mcl-1 (Q07820 whole entry): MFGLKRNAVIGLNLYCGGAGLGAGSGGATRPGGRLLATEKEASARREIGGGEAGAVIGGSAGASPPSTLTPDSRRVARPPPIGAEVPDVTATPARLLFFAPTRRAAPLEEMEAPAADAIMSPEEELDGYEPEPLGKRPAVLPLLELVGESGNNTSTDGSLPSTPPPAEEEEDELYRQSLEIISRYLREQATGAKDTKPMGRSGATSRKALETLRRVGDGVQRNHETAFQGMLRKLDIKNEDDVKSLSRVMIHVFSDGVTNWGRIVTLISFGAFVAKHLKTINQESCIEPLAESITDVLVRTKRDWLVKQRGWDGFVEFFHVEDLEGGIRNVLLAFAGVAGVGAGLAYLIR

As to `CC1(C)CC2=Nc3nn(-c4ccccc4)c(O)c3C(c3ccc4c(c3)OCO4)C2=C(O)C1` (stereo not drawn), the concentration at half-maximal activity (AC50) in assay [1] is 66.1 µM (active). At Protein RecA, the EC50 is 24 µM (active).

Take `O=c1cc(CSc2nc(O)c3ccccc3n2)c2ccc(O)cc2o1`: the IC50 in the assay with H9c2 was > 79 µM (inactive). Turning to `COc1ccccc1NC(=O)C1=C(C)Nc2nnnn2C1c1ccncc1` (stereo not drawn), the AC50 in assay [1] is 21.2 µM (inconclusive). With `CCCCN(CC)S(=O)(=O)c1ccc(C(=O)N(CCCN(C)C)c2nc3cc(C)cc(C)c3s2)cc1`, the CC50 in [2] is 14.9 µM (active). Also, in assay [3], the AC50 was 6.96 µM (active). The figures for the EC50 in assay [4] and in assay [7] were 9.54 µM (active) and 0.227 µM (active), respectively. The IC50 is > 20 µM (inactive) in assay [5] and 8.03 µM (not active) in assay [6].

Consider `CC(NC(=O)c1cc2c(=O)n(C)c3ccccc3c2n1C)c1ccc2c(c1)OCCO2` (stereo not drawn), for which the IC50 in the assay with H9c2 is > 79 µM (inactive). `O=C(CCc1nc(O)c2ccccc2n1)OCc1nnc(-c2ccccc2)o1`: the IC50 in the assay on H9c2 is 13 µM (active). Consider `CCN1C(=O)[C@H]2[C@@H](c3ccc(-c4ccc(C(C)=O)cc4)cc3)N[C@@](C)(C(=O)OC)[C@H]2C1=O`, for which, in the assay with H9c2, the IC50 is > 79 µM (inactive). As for `CCN(CC)CCn1c(=O)n(-c2ccc(Cl)cc2)c(=O)c2c3c(sc21)CN(C)CC3`, the EC50 in assay [8] and in assay [9] was > 99 µM (inactive) each time.

Consider `N#C/C(=C\Nc1ccc2c(c1)OCCO2)c1nc2ccccc2[nH]1`, for which the CC50 in assay [2] was 21.4 µM (active). Further, the IC50 in the assay with H9c2 was > 79 µM (inactive). For the compound `CN(C)c1ccc(NC(=O)c2ccc([N+](=O)[O-])cc2Cl)cc1`, the IC50 in assay [10] is 1.11 µM (not active). Turning to `Cn1cccc1/C=C1\SC(=O)N(c2ccccc2)C1=O`, the EC50 in [8] is 32 µM (inactive); in assay [9] it was > 99 µM (inactive). Regarding `CSc1nc(O)c2c3c(sc2n1)CCC3`, the IC50 in the assay on H9c2 is > 79 µM (inactive). With `COc1ccc(-c2noc(CCC(=O)NCC3CCN(Cc4cccc(C)c4)CC3)n2)cc1`, the IC50 in [5] is > 20 µM (inactive). For `CCN1C(=S)SC(=O)C1=C1C=C(C)OC(C)=C1`, the EC50 in assay [8] and in [9] was > 99 µM (inactive) in each case. As for `Cc1cccc2cc(/C=N/NC(=O)c3ccccc3O)c(Cl)nc12`, in assay [11], the EC50 was > 53 µM (inactive). The IC50 in assay [10] is 5.52 µM (active). Take `Cc1ccc(NS(=O)(=O)c2cc(-c3nnc(O)c4ccccc34)ccc2C)cc1`: the IC50 in the assay with H9c2 was 14.7 µM (active). For `CC(C)COCC(CN(Cc1ccccc1)c1ccccc1)N1CCCC1` (stereo not drawn), in [5], the IC50 is > 20 µM (inactive). Turning to `CC(C)(C)OC(=O)NCc1ccc(NC(=O)c2[nH]cnc2C(=O)NCCCCCCNC(=O)c2nc[nH]c2C(=O)Nc2ccc(CNC(=O)OC(C)(C)C)cc2)cc1`, the IC50 in the assay on H9c2 was > 79 µM (inactive). On to `Cc1ccc(S[C@@H](CCN2CC[C@H](C)CCC2=O)c2ccccc2)cc1`, for which the AC50 in assay [1] is 5.34 µM (active). In addition, the EC50 at Protein RecA is 17.6 µM (active). `CCOc1ccc(S(=O)(=O)NCc2cccnc2)cc1C`: in assay [1], the AC50 was > 380 µM (inactive). Further, the EC50 at Protein RecA is > 380 µM (inactive).

For orientation: AC50 means the concentration at which the activity in the assay is half-maximal. By IC50 is commonly meant the concentration needed to halve the response being measured. What is called CC50 is the concentration that lowers cell viability or growth by half.
